Columns and labels:
[1] = system: AP2-like-ethylene-responsive transcription factor (gene 4, Solyc11g072600.1); experiment: qRT-PCR expression of gene 4 in tomato leaves; assay type: in vivo, Tomato ecotype corbarino; parameters: key: relative expression normalized to a-tubulin housekeeping gene
Experimental: (§1) Tomato ecotype “corbarino” reported to be susceptible to TSWV infection was used in the experiment. Plants were grown in pots in a climatic chamber with a photoperiod of 16/8 hour at 25° C.
(§2) The viral strain (TSWV PV PV-0393) was utilized in the experiment. The virus was mechanically inoculated and propagated on tomato “corbarino”. The inoculum was prepared in an ice-cooled mortar grounding 1 gr of infected tomato tissue in 10 ml of Na-phosphate buffer 0.01M. The fresh prepared inoculum was stored in ice before use. Tomato plants at BBCH16 were dusted with Carborundum 600 mesh and selected leaves were rubbed with some droplets of inoculum. After 5 min. plants were sprayed with sterile water to remove the excess of inoculum and preserve the cell turgor.
(§3) Four treatments were compared: i) Mock inoculated; ii) TSWV; iii) 0.25% Laminarin; iv) 0.25% Laminarin+TSWV. In the last treatment the virus was inoculated 24 hrs after the laminarin application.
(§4) Total RNA was extracted from systemic infected tomato leaves by using the Quick-RNA Plant Kit (Zymo Research) following the manufacturer instructions. The extractions were carried out using three plants after 12 h, 24 h, 48 h, 72 h, 7 days after inoculation. Leaves were instantly frozen in liquid nitrogen after cutting to avoid any deterioration of the sample as well as any defense reaction. The RNA concentration was quantified by measuring the absorbance at 260 nm using a Nanodrop 2000 (Thermofisher). The purity of all of the RNA samples was assessed at an absorbance ratio of OD260/280 and OD260/230, while its structural integrity was checked by agarose gel electrophoresis. Only high-quality RNA with OD 260/280 and OD 260/230>2 was used for subsequent steps. Single-stranded cDNA was synthesized from 1 μg of total RNA using an iScript™ Select cDNA Synthesis Kit and random hexamers as primers (Bio-Rad, Milan, Italy), according to the manufacturer's instructions. Three biological replicates were created from the 3 leaves collected to test 15 genes. Alpha tubulin was used as reference gene.
(§5) qPCR reactions were performed with BioRad (Applied Biosystems, Foster City, CA, USA) using SYBR R Green. Each reaction was performed in 20 μl containing 10 μl of 2× Power SYBR Green PCR Master Mix (Life Technologies), 0.2-0.3 μM primers and cDNA samples diluted 1:20. Each qPCR reaction was performed in triplicate. Reactions were run using the cycling parameter described previously (Reid et al., 2006) and the qPCR data were analyzed by the Ct method (Pfaffl, 2001). In order to analyze the qPCR data, a-tubulin gene was used as housekeeping to determine the relative expression level of the other genes analyzed in this work. For the determination of qPCR efficiency of each primer pairs, a standard curve was performed using the following cDNA dilutions: 1:4, 1:16, 1:64; 1:256 and 1:1024. Every measurement was made in triplicate. The corresponding qPCR efficiencies (E) were calculated for every primer pair with the software 7300 System SDS software (Applied Biosystems, Foster City, CA, USA) according to the equation E=(10−1/slope−1)×100 (Rutledge and Stewart, 2008).
(§6) The significance of the differences between the gene expressions levels were compared by one-way ANOVA (p=0.01) and the means were separated by Tukey post-hoc test using SPSS ver.26 ([…]).

Pti6 (gene 15, U89257.1) = experiment: qRT-PCR expression of gene 15 in tomato leaves; assay type: in vivo, Tomato ecotype corbarino; parameters: key: relative expression normalized to a-tubulin housekeeping gene
Experimental: as §1, §2, §3, §4, §5, §6

[2] = Gene_15, 12 hr, treatment Laminarin
[3] = Gene_15, 12 hr, treatment Laminarin + virus
[4] = Gene_15, 24 hr, treatment Laminarin
[5] = Gene_15, 24 hr, treatment Laminarin + virus
[6] = Gene_15, 48 hr, treatment Laminarin
[7] = Gene_15, 48 hr, treatment Laminarin + virus
[8] = Gene_15, 72 hr, treatment Laminarin
[9] = Gene_15, 72 hr, treatment Laminarin + virus

laminarin was tested, and the RQ1 ([1]; 12 hr, Laminarin + virus) was 12.523, the RQ2 ([1]; 12 hr, Laminarin + virus) was 0.9104 and the RQ3 ([1]; 12 hr, Laminarin + virus) was 10.299. For the same substance, the RQ mean ([1]; 12 hr, Laminarin + virus) was 10.642, the RQ1 ([1]; 12 hr, Laminarin alone) was 0.9931 and the RQ2 ([1]; 12 hr, Laminarin alone) was 0.9090. It also gave an RQ3 ([1]; 12 hr, Laminarin alone) of 0.7654, an RQ mean ([1]; 12 hr, Laminarin alone) of 0.8892 and an RQ1 ([1]; 24 hr, Laminarin + virus) of 1.250. It also gave an RQ2 ([1]; 24 hr, Laminarin + virus) of 1.754, an RQ3 ([1]; 24 hr, Laminarin + virus) of 1.545 and an RQ mean ([1]; 24 hr, Laminarin + virus) of 1.516. For the same substance, the RQ1 ([1]; 24 hr, Laminarin alone) was 1.744, the RQ2 ([1]; 24 hr, Laminarin alone) was 1.728 and the RQ3 ([1]; 24 hr, Laminarin alone) was 1.516. It also gave an RQ mean ([1]; 24 hr, Laminarin alone) of 1.662, an RQ1 ([1]; 48 hr, Laminarin + virus) of 13.802 and an RQ2 ([1]; 48 hr, Laminarin + virus) of 15.313. It also gave an RQ3 ([1]; 48 hr, Laminarin + virus) of 21.904, an RQ mean ([1]; 48 hr, Laminarin + virus) of 17.006 and an RQ1 ([1]; 48 hr, Laminarin alone) of 15.231. For the same substance, the RQ2 ([1]; 48 hr, Laminarin alone) was 15.784, the RQ3 ([1]; 48 hr, Laminarin alone) was 37.709 and the RQ mean ([1]; 48 hr, Laminarin alone) was 22.908. It also gave an RQ1 ([1]; 72 hr, Laminarin + virus) of 35.424, an RQ2 ([1]; 72 hr, Laminarin + virus) of 26.180 and an RQ3 ([1]; 72 hr, Laminarin + virus) of 29.297. For the same substance, the RQ mean ([1]; 72 hr, Laminarin + virus) was 30.301, the RQ1 ([1]; 72 hr, Laminarin alone) was 25.807 and the RQ2 ([1]; 72 hr, Laminarin alone) was 30.148. The RQ3 ([1]; 72 hr, Laminarin alone) was 26.311, the RQ mean ([1]; 72 hr, Laminarin alone) was 27.422 and the RQ1 (Pti6 (gene 15, U89257.1); [2]) was 10.060. It also gave an RQ2 (Pti6 (gene 15, U89257.1); [2]) of 10.254, an RQ3 (Pti6 (gene 15, U89257.1); [2]) of 12.879 and an RQ mean (Pti6 (gene 15, U89257.1); [2]) of 11.065. It also gave an RQ1 (Pti6 (gene 15, U89257.1); [3]) of 12.002, an RQ2 (Pti6 (gene 15, U89257.1); [3]) of 16.131 and an RQ3 (Pti6 (gene 15, U89257.1); [3]) of 13.764. It also gave an RQ mean (Pti6 (gene 15, U89257.1); [3]) of 13.966, an RQ1 (Pti6 (gene 15, U89257.1); [4]) of 13.129 and an RQ2 (Pti6 (gene 15, U89257.1); [4]) of 21.363. The RQ3 (Pti6 (gene 15, U89257.1); [4]) was 13.388, the RQ mean (Pti6 (gene 15, U89257.1); [4]) was 15.960 and the RQ1 (Pti6 (gene 15, U89257.1); [5]) was 15.392. The RQ2 (Pti6 (gene 15, U89257.1); [5]) was 14.812, the RQ3 (Pti6 (gene 15, U89257.1); [5]) was 12.195 and the RQ mean (Pti6 (gene 15, U89257.1); [5]) was 14.133. It also gave an RQ1 (Pti6 (gene 15, U89257.1); [6]) of 32.421, an RQ2 (Pti6 (gene 15, U89257.1); [6]) of 0.8602 and an RQ3 (Pti6 (gene 15, U89257.1); [6]) of 19.066. The RQ mean (Pti6 (gene 15, U89257.1); [6]) was 20.030, the RQ1 (Pti6 (gene 15, U89257.1); [7]) was 16.304 and the RQ2 (Pti6 (gene 15, U89257.1); [7]) was 17.934. It also gave an RQ3 (Pti6 (gene 15, U89257.1); [7]) of 18.959, an RQ mean (Pti6 (gene 15, U89257.1); [7]) of 17.732 and an RQ1 (Pti6 (gene 15, U89257.1); [8]) of 49.281. The RQ2 (Pti6 (gene 15, U89257.1); [8]) was 36.255, the RQ3 (Pti6 (gene 15, U89257.1); [8]) was 43.025 and the RQ mean (Pti6 (gene 15, U89257.1); [8]) was 42.853. It also gave an RQ1 (Pti6 (gene 15, U89257.1); [9]) of 22.660, an RQ2 (Pti6 (gene 15, U89257.1); [9]) of 30.703 and an RQ3 (Pti6 (gene 15, U89257.1); [9]) of 44.821. It also gave an RQ mean (Pti6 (gene 15, U89257.1); [9]) of 32.728.

Source: US20240099214A1, “PLANT DEFENCE GENE EXPRESSION” (UPL Corporation Limited, priority 2021, published 2024)
